Measured values: patent US12690586B2, “Herbicidal malonamides” (BASF SE, priority 2020, dated 2026)

Columns and labels:
Experiment in all cases: greenhouse post-emergence herbicidal test
Type in all cases: in vivo
Settings in all cases: post-emergence method, application rate 0.125 kg/ha; scale 0 to 100
[1] = tested on: Abutilon theophrasti (ABUTH)
Source text: (§1) The culture containers used were plastic flowerpots containing loamy sand with approximately 3.0% of humus as the substrate. The seeds of the test plants were sown separately for each species.
(§2) For the pre-emergence treatment, the active ingredients, which had been suspended or emulsified in water, were applied directly after sowing by means of finely distributing nozzles. The containers were irrigated gently to promote germination and growth and subsequently covered with transparent plastic hoods until the test plants had rooted. This cover caused uniform germination of the test plants, unless this had been impaired by the active ingredients. For the post-emergence treatment, the test plants were first grown to a height of 3 to 15 cm, depending on the plant habit, and only then treated with the active ingredients which had been suspended or emulsified in water. For this purpose, the test plants were either sown directly and grown in the same containers, or they were first grown separately as seedlings and transplanted into the test containers a few days prior to treatment.
(§3) Depending on the species, the test plants were kept at 10-25° C. or 20-35° C., respectively. The test period extended over 2 to 4 weeks. During this time, the test plants were tended, and their response to the individual treatments was evaluated.
(§4) Evaluation was carried out using a scale from 0 to 100. 100 means no emergence of the test plants, or complete destruction of at least the aerial moieties, and 0 means no damage, or normal course of growth. A good herbicidal activity is given at values of 65 to 90 and a very good herbicidal activity is given at values of 90 to 100.
(§5) The test plants used in the greenhouse experiments were of the following species: […]

[2] = tested on: Alopecurus myosuroides (ALOMY)
Source text: as §1, §2, §3, §4, §5

[3] = tested on: Avena fatua (AVEFA)
Source text: as §1, §2, §3, §4, §5

COC(=O)[C@@H]1C=C[C@H](NC(=O)C2(C(=O)Nc3cc(F)cc(F)c3)CC2)C1 [I.2, methyl (1S,4R)-4-{1-[(3,5-difluorophenyl)carbamoyl]cyclopropaneamido}cyclopent-2-ene-1-carboxylate]
herbicidal activity against ABUTH [1]: good (A good herbicidal activity is given at values of 65 to 90)
herbicidal activity against ALOMY [2]: very good (a very good herbicidal activity is given at values of 90 to 100)
herbicidal activity against AVEFA [3]: very good (a very good herbicidal activity is given at values of 90 to 100)
